Results as given in publication PMC11239671, “GolpHCat (TMEM87A), a unique voltage-dependent cation channel in Golgi apparatus, contributes to Golgi-pH maintenance and hippocampus-dependent memory” (Nature Communications, 2024).
Numbering of substitutions follows the chain as printed.

Tests used:
TMEM87A (GolpHCat) [1] = target: T1, TMEM87A (GolpHCat) (Homo sapiens, UniProt Q8NBN3, A308M); test: cryo-EM structure at ~[…] Å; co-purified lipid density; type: binding
T1 construct: full-length hTMEM87A, M1-E555
T1 sequence (Q8NBN3 1-555 A308M): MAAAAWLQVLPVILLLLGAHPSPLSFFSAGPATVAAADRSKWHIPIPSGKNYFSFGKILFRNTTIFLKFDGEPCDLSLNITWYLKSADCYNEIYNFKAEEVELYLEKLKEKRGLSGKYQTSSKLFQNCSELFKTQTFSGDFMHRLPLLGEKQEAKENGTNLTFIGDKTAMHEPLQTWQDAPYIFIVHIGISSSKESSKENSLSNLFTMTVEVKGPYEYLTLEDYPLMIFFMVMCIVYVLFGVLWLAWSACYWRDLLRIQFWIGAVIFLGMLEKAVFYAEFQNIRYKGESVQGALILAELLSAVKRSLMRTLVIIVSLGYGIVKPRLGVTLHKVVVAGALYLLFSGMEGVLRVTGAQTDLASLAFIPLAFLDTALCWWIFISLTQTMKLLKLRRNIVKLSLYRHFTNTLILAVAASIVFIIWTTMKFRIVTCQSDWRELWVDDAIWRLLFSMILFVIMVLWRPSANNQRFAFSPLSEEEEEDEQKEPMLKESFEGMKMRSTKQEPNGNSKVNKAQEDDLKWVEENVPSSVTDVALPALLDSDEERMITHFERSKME

TMEM87A (GolpHCat) [2] = target: T2, TMEM87A (GolpHCat) (Homo sapiens, UniProt Q8NBN3); test: cryo-EM structure at […] Å; co-purified lipid, assigned from density shape and Golgi lipid composition; type: binding; set-up: full-length hTMEM87A, M1-E555; modelled D38-P473
T2 sequence (Q8NBN3 1-555): T1 sequence (Q8NBN3 1-555 A308M) with M308A

TMEM87A (GolpHCat) [3] = target: T2, TMEM87A (GolpHCat); test: cryo-EM structure at ~[…] Å with […] sodium gluconate; IC50 from whole-cell patch clamp in CHO-K1 cells; type: cell-based; set-up: full-length hTMEM87A, M1-E555 (isoform 1, NP_056312.2), EGFP-Twin-strep tag

Structure (SMILES)	cryo-EM structure at ~3.1 Å; co-purified lipid density (TMEM87A (GolpHCat) [1])	cryo-EM structure at 3.1 Å; co-purified lipid, assigned from density shape and G (TMEM87A (GolpHCat) [2])	IC50 (TMEM87A (GolpHCat) [3]) [nM]
CCCCCCCC/C=C\CCCCCCCC(=O)O[C@H](COC(=O)CCCCCCCCCCCCCCC)COP(=O)(O)OCCN [PE, 1-palmitoyl-2-oleoyl-sn-glycerol-3-phosphoethanolamine]	the PE density in hTMEM87A A308M was displaced to a position similar to that of the S6 state	PE was co-purified with hTMEM87A, suggesting that PE tightly and stably binds to TMEM87A	
O=C(O)[C@H](O)[C@@H](O)[C@H](O)[C@H](O)CO [gluconate]			100
